Assay results: US20250230193A1, “CYCLIC COMPOUND HAVING SELECTIVE KRAS INHIBITORY EFFECT ON HRAS AND NRAS” (CHUGAI SEIYAKU KABUSHIKI KAISHA, priority 2022, published 2025)
*1 amine or outer side, *2 acyl side, *3 side chain or, on linkers, in order; H or OH if unused. Where a SMILES comes first, the peptide text is derived from it. Bridges are numbered along the chain shown (N, C = ends). [ ]: non-standard residue; d: D form. The star is where a group is joined. hPhe(3-Cl-4-CF3) = N[C@@H](CCc1ccc(C(F)(F)F)c(Cl)c1)C(=O)O; NPrPhe(4-CF3) = CCCN[C@@H](Cc1ccc(C(F)(F)F)cc1)C(=O)O; NEtPhe(4-Me) = CCN[C@@H](Cc1ccc(C)cc1)C(=O)O; X30 = CCN([C@H](C(=O)[*:2])C1CCCC1)[*:1]; NMeGly(cPent) = CN[C@H](C(=O)O)C1CCCC1; Pro(4,4-F2) = O=C(O)[C@@H]1CC(F)(F)CN1; Pro(4,4-Me2) = CC1(C)CN[C@H](C(=O)O)C1; Hyp = O=C(O)[C@@H]1C[C@@H](O)CN1; NMeD = CN[C@@H](CC(=O)O)C(=O)O; NMeL = CN[C@@H](CC(C)C)C(=O)O; Morpholide = C1CN(*)CCO1; Ac5c = NC1(C(=O)O)CCCC1; Aze = O=C(O)[C@@H]1CCN1; NEtG = CCNCC(=O)O; Sar = CNCC(=O)O

Key:
[1] = biological target: GDP-bound NRAS wild-type protein (Homo sapiens, UniProt P01111); test: Binding to NRAS by surface plasmon resonance (SPR), Single Cycle Kinetics
Sequence of GDP-bound NRAS wild-type protein (P01111 whole entry): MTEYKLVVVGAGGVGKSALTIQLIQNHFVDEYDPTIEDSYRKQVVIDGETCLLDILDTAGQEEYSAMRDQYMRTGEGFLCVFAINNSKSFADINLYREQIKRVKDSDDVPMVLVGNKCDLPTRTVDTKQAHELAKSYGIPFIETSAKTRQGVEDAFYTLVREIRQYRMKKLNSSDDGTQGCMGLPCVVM

[2] = biological target: GDP-bound HRAS wild-type protein (Homo sapiens, UniProt P01112); test: Binding to HRAS by surface plasmon resonance (SPR), Single Cycle Kinetics
Sequence of GDP-bound HRAS wild-type protein (P01112 whole entry): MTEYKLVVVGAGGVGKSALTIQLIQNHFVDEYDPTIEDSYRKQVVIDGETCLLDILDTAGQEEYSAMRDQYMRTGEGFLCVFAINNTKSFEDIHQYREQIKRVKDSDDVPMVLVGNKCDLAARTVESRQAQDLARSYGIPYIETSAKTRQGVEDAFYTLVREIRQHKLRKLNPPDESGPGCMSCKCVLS

Row | SMILES | NRAS/KRAS (ratio of KD for GDP-bound NRAS wild-type to KD for KRAS) ([1]; SPR) | HRAS/KRAS (ratio of KD for GDP-bound HRAS wild-type to KD for KRAS) ([2]; SPR) | other results
1 | CC[C@H](C)[C@@H]1NC(=O)[C@H](CC(C)C)N(C)C(=O)C[C@@H](C(=O)N2CCOCC2)N(C)C(=O)[C@H](C2CCCC2)N(C)C(=O)C2(CCCC2)NC(=O)[C@@H]2CCCN2C(=O)[C@H](CCc2ccc(C(F)(F)F)c(Cl)c2)NC(=O)CN(C)C(=O)[C@H](C2CCCC2)N(CC)C(=O)CN(C)C(=O)CN(C)C1=O [PP0024] ([NMeL]I[Sar][Sar][X30][Sar][hPhe(3-Cl-4-CF3)]P[Ac5c][NMeGly(cPent)][NMeD]-Morpholide; lactam N-11) | B (a compound having 3 or more and less than 10 is denoted as B) | C (A compound having a KD ratio of 0.1 or more and less than 3 is denoted as C) | 
2 | CCO[C@@H]1C[C@H]2C(=O)NC3(CCC3)C(=O)N(C)[C@@H](C3CCCC3)C(=O)N(C)[C@H](C(=O)N(C)C)CC(=O)N(C)[C@@H](COC)C(=O)N[C@@H]([C@@H](C)CC)C(=O)N(C)CC(=O)N(C)[C@H]3CCCCCN(C3=O)[C@@H](Cc3ccc(F)cc3)C(=O)N(C)CC(=O)N[C@@H](CCc3cc(F)c(C(F)(F)F)c(F)c3)C(=O)N2C1 [PP1193] |  |  | NRAS/KRAS (ratio of KD value with respect to NRAS to KD value with respect to KRAS) ([1]; KD ratio, GDP-bound NRAS wild-type vs GDP-bound KRAS wild-type, SPR): B (a compound having 3 or more and less than 10 is denoted as B); HRAS/KRAS (ratio of KD value with respect to HRAS to KD value with respect to KRAS) ([2]; KD ratio, GDP-bound HRAS wild-type vs GDP-bound KRAS wild-type, SPR): B (a compound having 3 or more and less than 10 is denoted as B)
3 | CCO[C@@H]1C[C@H]2C(=O)NC3(CC(C)(C)C3)C(=O)N(C)[C@@H](C(CC)CC)C(=O)N(C)[C@H](C(=O)N(C)C)CC(=O)N(C)[C@H]3CC/C=C/c4ccc(cc4)C[C@@H](C(=O)N(C)CC(=O)N[C@@H](CCc4cc(F)c(C(F)(F)F)c(F)c4)C(=O)N2C1)N1CC/C=C\C[C@@H](C1=O)N(C)C(=O)CN(C)C(=O)[C@H]([C@@H](C)CC)NC3=O [PP2586] |  |  | NRAS/KRAS (ratio of KD value with respect to GDP-bound NRAS wild-type protein to KD value with respect to KRAS) ([1]; class symbols): A (a compound having 10 or more and less than 20 is denoted as A); HRAS/KRAS (ratio of KD value with respect to GDP-bound HRAS wild-type protein to KD value with respect to KRAS) ([2]; class symbols): B (a compound having 3 or more and less than 10 is denoted as B)
4 | CCCN1C(=O)CN(C)C(=O)CN(CC)C(=O)[C@H]([C@@H](C)CC)NC(=O)[C@H](CC(C)C)N(C)C(=O)C[C@@H](C(=O)N2CCOCC2)NC(=O)[C@H](C2CCCC2)N(C)C(=O)C2(CCCC2)NC(=O)[C@@H]2CC(F)(F)CN2C(=O)[C@H](CCc2ccc(C(F)(F)F)c(Cl)c2)NC(=O)CN(C)C(=O)[C@@H]1Cc1ccc(C(F)(F)F)cc1 [PP0333] ([NMeL]I[NEtG][Sar][NPrPhe(4-CF3)][Sar][hPhe(3-Cl-4-CF3)][Pro(4,4-F2)][Ac5c][NMeGly(cPent)]D-Morpholide; lactam N-11) | B (a compound having 3 or more and less than 10 is denoted as B) | C (A compound having a KD ratio of 0.1 or more and less than 3 is denoted as C) | 
5 | CCCN1C(=O)[C@@H]2CCN2C(=O)CN(C)C(=O)[C@H]([C@@H](C)CC)NC(=O)[C@H](CC(C)C)N(C)C(=O)C[C@@H](C(=O)N2CCOCC2)N(C)C(=O)[C@H](C2CCCC2)N(C)C(=O)C2(CCCC2)NC(=O)[C@@H]2CC(C)(C)CN2C(=O)[C@H](CCc2ccc(C(F)(F)F)c(Cl)c2)NC(=O)CN(C)C(=O)[C@@H]1Cc1ccc(C(F)(F)F)cc1 [PP0456] ([NMeL]I[Sar][Aze][NPrPhe(4-CF3)][Sar][hPhe(3-Cl-4-CF3)][Pro(4,4-Me2)][Ac5c][NMeGly(cPent)][NMeD]-Morpholide; lactam N-11) |  |  | NRAS/KRAS (ratio of KD value with respect to GDP-bound NRAS wild-type protein to KD value with respect to KRAS) ([1]; SPR): C (A compound having a KD ratio of 0.1 or more and less than 3 is denoted as C); HRAS/KRAS (ratio of KD value with respect to GDP-bound HRAS wild-type protein to KD value with respect to KRAS) ([2]; SPR): C (A compound having a KD ratio of 0.1 or more and less than 3 is denoted as C)
6 | CCO[C@@H]1C[C@H]2C(=O)NC3(CCCC3)C(=O)N(C)[C@@H](C3CCCC3)C(=O)N(C)[C@H](C(=O)N3CCOCC3)CC(=O)N(C)[C@@H](CC(C)C)C(=O)N[C@@H]([C@@H](C)CC)C(=O)N(C)CC(=O)N(C)CC(=O)N(CC)[C@@H](Cc3ccc(C)cc3)C(=O)N(C)CC(=O)N[C@@H](CCc3ccc(C(F)(F)F)c(Cl)c3)C(=O)N2C1 [PP0042] ([NMeL]I[Sar][Sar][NEtPhe(4-Me)][Sar][hPhe(3-Cl-4-CF3)][Hyp](Et)[Ac5c][NMeGly(cPent)][NMeD]-Morpholide; lactam N-11) | C (A compound having a KD ratio of 0.1 or more and less than 3 is denoted as C) | C (A compound having a KD ratio of 0.1 or more and less than 3 is denoted as C) | 
7 | CCCN1C(=O)CN(C)C(=O)CN(CC)C(=O)[C@H]([C@@H](C)CC)NC(=O)[C@H](CC(C)C)N(C)C(=O)C[C@@H](C(=O)N2CCOCC2)N(C)C(=O)[C@H](C2CCCC2)N(C)C(=O)C2(CCCC2)NC(=O)[C@@H]2CCN2C(=O)[C@H](CCc2ccc(C(F)(F)F)c(Cl)c2)NC(=O)CN(C)C(=O)[C@@H]1Cc1ccc(C(F)(F)F)cc1 [PP0294] ([NMeL]I[NEtG][Sar][NPrPhe(4-CF3)][Sar][hPhe(3-Cl-4-CF3)][Aze][Ac5c][NMeGly(cPent)][NMeD]-Morpholide; lactam N-11) | B (a compound having 3 or more and less than 10 is denoted as B) | C (A compound having a KD ratio of 0.1 or more and less than 3 is denoted as C) | 
